molecular target: human TRPA1 (Homo sapiens (Human), UniProt O75762); test: In vitro inhibition of human TRPA1, whole cell patch configuration; format: cell-based; conditions: current activation 10 μM AITC, tested concentrations 320 pM to 3.2 μM, read-out: hTRPA1 IC50
Outline: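 Whole-cell patch clamp, bath 150 mM NaCl, 10 mM HEPES, 1 mM EGTA, 3 mM MgCl2, pH 7.4 (sometimes 2 mM CaCl2, 1 mM MgCl2). Currents recorded continuously at −60 mV or by 400 ms ramps from −40 mV holding every 4 s; inward/outward currents taken at −80/80 mV, with controlled-temperature focal perfusion.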

human TRPA1, sequence (O75762 whole entry, the tested form may be a part): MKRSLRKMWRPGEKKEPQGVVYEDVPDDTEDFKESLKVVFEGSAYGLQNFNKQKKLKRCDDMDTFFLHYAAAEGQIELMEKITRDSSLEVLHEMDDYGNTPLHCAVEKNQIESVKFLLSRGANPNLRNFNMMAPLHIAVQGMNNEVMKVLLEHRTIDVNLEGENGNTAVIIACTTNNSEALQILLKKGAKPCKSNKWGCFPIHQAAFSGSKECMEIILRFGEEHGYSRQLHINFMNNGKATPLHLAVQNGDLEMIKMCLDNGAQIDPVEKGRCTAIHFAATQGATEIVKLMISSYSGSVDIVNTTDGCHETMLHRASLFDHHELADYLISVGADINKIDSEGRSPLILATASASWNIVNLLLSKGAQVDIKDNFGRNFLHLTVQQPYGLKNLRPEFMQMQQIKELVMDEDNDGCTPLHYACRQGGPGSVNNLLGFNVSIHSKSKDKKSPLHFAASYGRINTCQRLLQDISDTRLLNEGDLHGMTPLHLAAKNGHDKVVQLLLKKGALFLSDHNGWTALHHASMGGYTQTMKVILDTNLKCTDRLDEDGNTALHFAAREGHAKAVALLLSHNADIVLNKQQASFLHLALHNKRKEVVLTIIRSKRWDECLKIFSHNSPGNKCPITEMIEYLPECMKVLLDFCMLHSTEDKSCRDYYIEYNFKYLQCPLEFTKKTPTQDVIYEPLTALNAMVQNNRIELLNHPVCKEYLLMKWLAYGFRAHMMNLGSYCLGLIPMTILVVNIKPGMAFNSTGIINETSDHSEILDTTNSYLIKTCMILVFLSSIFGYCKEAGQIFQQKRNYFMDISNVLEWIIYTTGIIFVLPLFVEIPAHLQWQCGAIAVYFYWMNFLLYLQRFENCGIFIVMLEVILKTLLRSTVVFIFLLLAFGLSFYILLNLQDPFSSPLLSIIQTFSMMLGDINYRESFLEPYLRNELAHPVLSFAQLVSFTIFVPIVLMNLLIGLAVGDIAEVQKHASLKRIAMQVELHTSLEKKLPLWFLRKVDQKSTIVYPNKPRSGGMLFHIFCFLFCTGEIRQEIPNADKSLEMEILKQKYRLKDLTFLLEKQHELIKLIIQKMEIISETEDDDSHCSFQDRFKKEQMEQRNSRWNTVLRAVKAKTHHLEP

IC50 [nM]	Compound
1	CCOc1ncc(-c2cccc(NC(=O)[C@H](C)n3cnc4c3c(=O)n(CC(=O)CC)c(=O)n4C)n2)cc1C(F)(F)F [Compound 125, (S)—N-(6′-ethoxy-5′-(trifluoromethyl)-[2,3′-bipyridin]-6-yl)-2-(3-methyl-2,6-dioxo-1-(2-oxobutyl)-2,3-dihydro-1H-purin-7(6H)-yl)propanamide]
1	Cc1cc(Cn2c(=O)c3c(ncn3[C@@H](C)C(=O)Nc3cccc(-c4cnc(C)c(C(F)(F)F)c4)n3)n(C)c2=O)no1 [Compound 126, (S)-2-(3-methyl-1-((5-methylisoxazol-3-yl)methyl)-2,6-dioxo-2,3-dihydro-1H-purin-7(6H)-yl)-N-(6′-methyl-5′-(trifluoromethyl)-[2,3′-bipyridin]-6-yl)propanamide]
25	Cc1cc(Cn2c(=O)c3c(ncn3[C@@H](C)C(=O)Nc3cccc(-c4cnc(C)c(C)c4)n3)n(C)c2=O)no1 [Compound 127, (S)—N-(5′,6′-dimethyl-[2,3′-bipyridin]-6-yl)-2-(3-methyl-1-((5-methylisoxazol-3-yl)methyl)-2,6-dioxo-2,3-dihydro-1H-purin-7(6H)-yl)propanamide]
4	Cc1cc(Cn2c(=O)c3c(ncn3[C@@H](C)C(=O)Nc3cncc(-c4cnc(C)c(C(F)(F)F)c4)n3)n(C)c2=O)no1 [Compound 128, (S)-2-(3-methyl-1-((5-methylisoxazol-3-yl)methyl)-2,6-dioxo-2,3-dihydro-1H-purin-7(6H)-yl)-N-(6-(6-methyl-5-(trifluoromethyl)pyridin-3-yl)pyrazin-2-yl)propanamide]
2	Cc1cc(Cn2c(=O)c3c(ncn3[C@@H](C)C(=O)Nc3cccc(-c4cnc(C(F)(F)F)c(C)c4)n3)n(C)c2=O)no1 [Compound 129, (S)-2-(3-methyl-1-((5-methylisoxazol-3-yl)methyl)-2,6-dioxo-2,3-dihydro-1H-purin-7(6H)-yl)-N-(5′-methyl-6′-(trifluoromethyl)-[2,3′-bipyridin]-6-yl)propanamide]
8	Cc1cc(Cn2c(=O)c3c(ncn3[C@@H](C)C(=O)Nc3cncc(-c4cnc(C(F)(F)F)c(C)c4)n3)n(C)c2=O)no1 [Compound 130, (S)-2-(3-methyl-1-((5-methylisoxazol-3-yl)methyl)-2,6-dioxo-2,3-dihydro-1H-purin-7(6H)-yl)-N-(6-(5-methyl-6-(trifluoromethyl)pyridin-3-yl)pyrazin-2-yl)propanamide]
6	Cc1noc(Cn2c(=O)c3c(ncn3[C@@H](C)C(=O)Nc3cccc(-c4cnc(C(F)(F)F)c(C)c4)n3)n(C)c2=O)n1 [Compound 131, (S)-2-(3-methyl-1-((3-methyl-1,2,4-oxadiazol-5-yl)methyl)-2,6-dioxo-2,3-dihydro-1H-purin-7(6H)-yl)-N-(5′-methyl-6′-(trifluoromethyl)-[2,3′-bipyridin]-6-yl)propanamide]
9	Cc1noc(Cn2c(=O)c3c(ncn3[C@@H](C)C(=O)Nc3cncc(-c4cnc(C)c(C(F)(F)F)c4)n3)n(C)c2=O)n1 [Compound 132, (S)-2-(3-methyl-1-((3-methyl-1,2,4-oxadiazol-5-yl)methyl)-2,6-dioxo-2,3-dihydro-1H-purin-7(6H)-yl)-N-(6-(6-methyl-5-(trifluoromethyl)pyridin-3-yl)pyrazin-2-yl)propanamide]
9	Cc1noc(Cn2c(=O)c3c(ncn3[C@@H](C)C(=O)Nc3cncc(-c4cnc(C(F)(F)F)c(C)c4)n3)n(C)c2=O)n1 [Compound 133, (S)-2-(3-methyl-1-((3-methyl-1,2,4-oxadiazol-5-yl)methyl)-2,6-dioxo-2,3-dihydro-1H-purin-7(6H)-yl)-N-(6-(5-methyl-6-(trifluoromethyl)pyridin-3-yl)pyrazin-2-yl)propanamide]
3	Cc1ncc(-c2cccc(NC(=O)[C@H](C)n3cnc4c3c(=O)n(Cc3ccon3)c(=O)n4C)n2)cc1C(F)(F)F [Compound 136, (S)-2-(1-(isoxazol-3-ylmethyl)-3-methyl-2,6-dioxo-2,3-dihydro-1H-purin-7(6H)-yl)-N-(6′-methyl-5′-(trifluoromethyl)-[2,3′-bipyridin]-6-yl)propanamide]
